This passage reports EC50 results from patent publication US12134610B2, “Somatostatin subtype-2 receptor (SST2R) targeted therapeutics and uses thereof” (priority 2022, dated 2024).

The structures appear in SMILES notation. Read-outs that look alike come from different tables or passages of the source. Starred links: 1 amine or outer side, 2 acyl side, 3 side chain; linkers in the order of their positions; H or OH if unused. Non-standard residues stand in square brackets, D forms with d. Residues, ends and D or L forms follow the SMILES beside them. *: point of attachment. X1 = Cc1cc(F)cc(-c2cnc(NCCNC(=O)CCOCCC(=O)*)c(-c3nc4ccc(Cl)cc4[nH]3)c2N2CCC(N)CC2)c1; Dolaproine = CO[C@@H]([C@@H]1CCCN1)[C@@H](C)C(=O)O; Dil = CC[C@H](C)[C@H](NC)[C@@H](CC(=O)O)OC; PABC = O=C(OCc1ccc(N[*:1])cc1)[*:2]; X2 = C[C@@H](N*)[C@@H](O)c1ccccc1; Cya = N[C@@H](CS(=O)(=O)O)C(=O)O; Cit = NC(=O)NCCC[C@H](N)C(=O)O; NMeV = CN[C@H](C(=O)O)C(C)C

Common to all, as to type: cell-based
The test system of experiment [1] is NCI-H524 (ATCC) human small cell lung cancer cells. The procedure, abridged:
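CellTiter-Glo luminescence after a 2 h SMDC pulse (top dose 1 uM, 2-fold dilutions, 11 points), medium wash, then 70 h recovery. Cells were seeded at 5,000/well and dosed 24 h later. % inhibition vs control gave IC50 via four-parameter fit.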

In experiment [2] the target is T1, human somatostatin receptor subtype 2 (Homo sapiens, UniProt P30874).
T1 construct: expressed in transfected cells
The experiment can be described thus: Functional cAMP assay for SSTR2 agonists (HTRF) in CHO-K1 cells. The following applies: CHO-K1 cells stably expressing human SST2, 20 min. The procedure, abridged:
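Agonism scored as loss of NKH477 (1.6 μM)-driven cAMP, with IBMX present, after 20 min, 37° C. exposure of stably transfected CHO-K1 cells to compound dilutions (typically 0-10,000 nM). Lysates read by time-resolved FRET; cAMP interpolated from standard curve and EC50 derived.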
(Changes in cAMP serve as a functional read-out for many G protein-coupled receptors.)

A further experiment concerns the target T2, SST2 (Homo sapiens, UniProt P30874).
T2 construct: host or cells: PathHunter CHO-K1 SST2 cells
The experiment can be described thus: PathHunter CHO-K1 SST2 internalization assay. The following applies: PathHunter CHO-K1 SST2, 90 min. The procedure, abridged: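 IC50 comes from four-parameter curves on background-corrected duplicates of Beta-Glo luminescence, read after 60 min at room temperature in the dark. Before that, CHO-K1 SST2 internalization cells (48 h post-seeding) received SMDC as eleven threefold dilutions, 10 uM highest final, for 90 min at 37 C.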

T2 sequence (P30874 whole entry): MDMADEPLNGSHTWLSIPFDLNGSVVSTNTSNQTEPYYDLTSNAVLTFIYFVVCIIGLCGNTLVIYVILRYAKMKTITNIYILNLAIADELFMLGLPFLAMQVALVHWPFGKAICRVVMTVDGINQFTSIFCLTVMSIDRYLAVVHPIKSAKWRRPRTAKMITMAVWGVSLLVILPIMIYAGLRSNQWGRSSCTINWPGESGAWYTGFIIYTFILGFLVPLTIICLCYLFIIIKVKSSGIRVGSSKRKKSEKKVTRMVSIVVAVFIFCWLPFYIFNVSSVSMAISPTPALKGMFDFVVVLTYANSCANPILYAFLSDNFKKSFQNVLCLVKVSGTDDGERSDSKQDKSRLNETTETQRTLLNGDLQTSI
T1 sequence (P30874 whole entry): as above

Consider `CC[C@H](C)[C@@H]([C@@H](CC(=O)N1CCC[C@H]1[C@H](OC)[C@@H](C)C(=O)N[C@H](C)[C@@H](O)c1ccccc1)OC)N(C)C(=O)[C@@H](NC(=O)[C@H](C(C)C)N(C)C(=O)OCc1ccc(NC(=O)[C@H](CCCNC(N)=O)NC(=O)[C@@H](NC(=O)[C@H](CCC(=O)O)NC(=O)[C@H](CCC(=O)O)NC(=O)CCOCCC(=O)NCCNc2ncc(-c3cc(C)cc(F)c3)c(N3CCC(N)CC3)c2-c2nc3ccc(Cl)cc3[nH]2)C(C)C)cc1)C(C)C` [Compound 98] (X1-EEV[Cit][PABC][NMeV]V[Dil][Dolaproine]-X2), for which the EC50 (commonly the concentration at which the effect is half-maximal) was 120 nM in experiment [1] (2 h), 0.25 nM in experiment [2] (read-out: hSST2 cAMP Avg EC50) and 2.9 nM at SST2 (read-out: Internalization EC50).
Consider `CC[C@H](C)[C@@H]([C@@H](CC(=O)N1CCC[C@H]1[C@H](OC)[C@@H](C)C(=O)N[C@H](C)[C@@H](O)c1ccccc1)OC)N(C)C(=O)[C@@H](NC(=O)[C@H](C(C)C)N(C)C(=O)OCc1ccc(NC(=O)[C@H](CCCNC(N)=O)NC(=O)[C@@H](NC(=O)[C@H](CS(=O)(=O)O)NC(=O)CCOCCC(=O)NCCNc2ncc(-c3cc(C)cc(F)c3)c(N3CCC(N)CC3)c2-c2nc3ccc(Cl)cc3[nH]2)C(C)C)cc1C(=O)NCCN)C(C)C` [Compound 99], for which the EC50 in experiment [1] (2 h) was 4.6 nM; in experiment [2] (read-out: hSST2 cAMP Avg EC50), 0.19 nM; at SST2 (read-out: Internalization EC50), 2.8 nM.
As for `CC[C@H](C)[C@@H]([C@@H](CC(=O)N1CCC[C@H]1[C@H](OC)[C@@H](C)C(=O)N[C@H](C)[C@@H](O)c1ccccc1)OC)N(C)C(=O)[C@@H](NC(=O)[C@H](C(C)C)N(C)C(=O)OCc1ccc(NC(=O)[C@H](CCCNC(N)=O)NC(=O)[C@@H](NC(=O)[C@H](CS(=O)(=O)O)NC(=O)CCOCCOCCOCCOCCC(=O)NCCNc2ncc(-c3cc(C)cc(F)c3)c(N3CCC(N)CC3)c2-c2nc3ccc(Cl)cc3[nH]2)C(C)C)cc1)C(C)C` [Compound 45], the 50% effective concentration (EC50) is 32 nM in experiment [1] (2 h), 0.12 nM in experiment [2] (read-out: hSST2 cAMP Avg EC50) and 21 nM at SST2 (read-out: Internalization EC50).
Regarding `CC[C@H](C)[C@@H]([C@@H](CC(=O)N1CCC[C@H]1[C@H](OC)[C@@H](C)C(=O)N[C@H](C)[C@@H](O)c1ccccc1)OC)N(C)C(=O)[C@@H](NC(=O)[C@H](C(C)C)N(C)C(=O)OCc1ccc(NC(=O)[C@H](CCCNC(N)=O)NC(=O)[C@@H](NC(=O)[C@@H](CCC(=O)O)NC(=O)[C@@H](CCC(=O)O)NC(=O)CCOCCC(=O)NCCNc2ncc(-c3cc(C)cc(F)c3)c(N3CCC(N)CC3)c2-c2nc3ccc(Cl)cc3[nH]2)C(C)C)cc1)C(C)C` [Compound 103] (X1-[dE][dE]V[Cit][PABC][NMeV]V[Dil][Dolaproine]-X2), the EC50 in experiment [1] (2 h) is 620 nM; in experiment [2] (read-out: hSST2 cAMP Avg EC50) it was 0.26 nM; at SST2 (read-out: Internalization EC50), 24 nM.
`CCC(C)C(C(CC(=O)N1CCCC1C(OC)C(C)C(=O)NC(C)C(O)c1ccccc1)OC)N(C)C(=O)C(NC(=O)C(C(C)C)N(C)C(=O)OCc1ccc(NC(=O)[C@H](CCCNC(N)=O)NC(=O)[C@@H](NC(=O)CCOCCOCCOCCOCCC(=O)NCCNc2ncc(-c3cc(C)cc(F)c3)c(N3CCC(NC)CC3)c2-c2nc3ccc(Cl)cc3[nH]2)C(C)C)cc1)C(C)C` (stereo in doubt) [Compound 41]: the figures for the EC50 (in experiment [1] (2 h); in experiment [2] (read-out: hSST2 cAMP Avg EC50); on SST2 (read-out: Internalization EC50)) were 27.8 nM, 0.48 nM and 24.6 nM, respectively.
For `CC[C@H](C)[C@@H]([C@@H](CC(=O)N1CCC[C@H]1[C@H](OC)[C@@H](C)C(=O)N[C@H](C)[C@@H](O)c1ccccc1)OC)N(C)C(=O)[C@@H](NC(=O)[C@H](C(C)C)N(C)C(=O)OCc1ccc(NC(=O)[C@H](CCCNC(N)=O)NC(=O)[C@@H](NC(=O)[C@H](CCC(N)=O)NC(=O)CCOCCC(=O)NCCNc2ncc(-c3cc(C)cc(F)c3)c(N3CCC(N)CC3)c2-c2nc3ccc(Cl)cc3[nH]2)C(C)C)cc1C(=O)NCCN)C(C)C` [Compound 57], in that order: 15 nM, 0.38 nM and 5.7 nM.
Turning to `CC[C@H](C)[C@@H]([C@@H](CC(=O)N1CCC[C@H]1[C@H](OC)[C@@H](C)C(=O)N[C@H](C)[C@@H](O)c1ccccc1)OC)N(C)C(=O)[C@@H](NC(=O)[C@H](C(C)C)N(C)C(=O)OCc1ccc(NC(=O)[C@H](CCCNC(N)=O)NC(=O)[C@@H](NC(=O)[C@H](CCC(N)=O)NC(=O)CCOCCC(=O)NCCNc2ncc(-c3cc(C)cc(F)c3)c(N3CCC(N)CC3)c2-c2nc3ccc(Cl)cc3[nH]2)C(C)C)c(O[C@@H]2O[C@H](C(=O)O)[C@@H](O)[C@H](O)[C@H]2O)c1)C(C)C` [Compound 151], the figures for the half-maximal effective concentration (EC50) (in experiment [1] (2 h); in experiment [2] (read-out: hSST2 cAMP Avg EC50); on SST2 (read-out: Internalization EC50)) were 8.9 nM, 0.28 nM and 2.2 nM, respectively.
Regarding `CC[C@H](C)[C@@H]([C@@H](CC(=O)N1CCC[C@H]1[C@H](OC)[C@@H](C)C(=O)N[C@H](C)[C@@H](O)c1ccccc1)OC)N(C)C(=O)[C@@H](NC(=O)[C@H](C(C)C)N(C)C(=O)OCc1ccc(NC(=O)[C@H](C)NC(=O)[C@@H](NC(=O)CCOCCC(=O)N(C)CCNc2ncc(-c3cc(C)cc(F)c3)c(N3CCC(N)CC3)c2-c2nc3ccc(Cl)cc3[nH]2)C(C)C)c(O[C@@H]2O[C@H](C(=O)O)[C@@H](O)[C@H](O)[C@H]2O)c1)C(C)C` [Compound 153], the EC50 in experiment [1] (2 h) was determined as 98 nM; in experiment [2] (read-out: hSST2 cAMP Avg EC50), 0.51 nM; at SST2 (read-out: Internalization EC50) it was 14 nM.
For `CC[C@H](C)[C@@H]([C@@H](CC(=O)N1CCC[C@H]1[C@H](OC)[C@@H](C)C(=O)N[C@H](C)[C@@H](O)c1ccccc1)OC)N(C)C(=O)[C@@H](NC(=O)[C@H](C(C)C)N(C)C(=O)OCc1ccc(NC(=O)[C@H](CCCNC(N)=O)NC(=O)[C@@H](NC(=O)CCOCCOCCOCCOCCC(=O)NCCNc2ncc(-c3cc(C)cc(F)c3)c(N3CCC(N)CC3)c2-c2nc3ccc(Cl)cc3[nH]2)C(C)C)cc1C(=O)NCCNC(=O)CCOCCOCCOCCOCCN)C(C)C` [Compound 48], the EC50 in experiment [1] (2 h) worked out at 12.4 nM; in experiment [2] (read-out: hSST2 cAMP Avg EC50), 0.26 nM; at SST2 (read-out: Internalization EC50) it was 6.9 nM.
In the case of `CC[C@H](C)[C@@H]([C@@H](CC(=O)N1CCC[C@H]1[C@H](OC)[C@@H](C)C(=O)N[C@H](C)[C@@H](O)c1ccccc1)OC)N(C)C(=O)[C@@H](NC(=O)[C@H](C(C)C)N(C)C(=O)OCc1ccc(NC(=O)[C@H](C)NC(=O)[C@@H](NC(=O)[C@H](CCC(=O)O)NC(=O)CCCCCC(=O)NCCNc2ncc(-c3cc(C)cc(F)c3)c(N3CCC(N)CC3)c2-c2nc3ccc(Cl)cc3[nH]2)C(C)C)cc1C(=O)NCCN)C(C)C` [Compound 120], the EC50 in experiment [1] (2 h) was 2.4 nM; in experiment [2] (read-out: hSST2 cAMP Avg EC50), 0.19 nM; on SST2 (read-out: Internalization EC50), 2.7 nM.
As to `CC[C@@]1(O)C(=O)OCc2c1cc1n(c2=O)Cc2c-1nc1cc(F)c(C)c3c1c2[C@@H](NC(=O)OCc1ccc(NC(=O)[C@H](C)NC(=O)[C@@H](NC(=O)CCOCCC(=O)NCCNc2ncc(-c4cc(C)cc(F)c4)c(N4CCC(N)CC4)c2-c2nc4ccc(Cl)cc4[nH]2)C(C)C)c(O[C@@H]2O[C@H](C(=O)O)[C@@H](O)[C@H](O)[C@H]2O)c1)CC3` [Compound 65], the concentration giving a half-maximal response (EC50) in experiment [1] (2 h treatment, washout, additional 70 h, read-out: H524 EC50) stood at 250 nM; in experiment [2] (hSST2 cAMP Avg EC50 (nM)) it was 0.27 nM; on SST2 (Internalization EC50 (nM)), 1.5 nM.
For the compound `CC[C@H](C)[C@@H]([C@@H](CC(=O)N1CCC[C@H]1[C@H](OC)[C@@H](C)C(=O)N[C@H](C)[C@@H](O)c1ccccc1)OC)N(C)C(=O)[C@@H](NC(=O)[C@H](C(C)C)N(C)C(=O)OCc1ccc(NC(=O)[C@H](CCCNC(N)=O)NC(=O)[C@@H](NC(=O)CCOCCOCCOCCOCCC(=O)NCCNc2ncc(-c3cc(C)cc(F)c3)c(N3CCC(O)CC3)c2-c2nc3ccc(Cl)cc3[nH]2)C(C)C)cc1)C(C)C` [Compound 31], the EC50 in experiment [1] (2 h) was 1060 nM; in experiment [2] (read-out: hSST2 cAMP Avg EC50), 1700 nM; at SST2 (read-out: Internalization EC50) it was over 1000 nM.
On the same counts, the results for `CC[C@H](C)[C@@H]([C@@H](CC(=O)N1CCC[C@H]1[C@H](OC)[C@@H](C)C(=O)N[C@H](C)[C@@H](O)c1ccccc1)OC)N(C)C(=O)[C@@H](NC(=O)[C@H](C(C)C)N(C)C(=O)OCc1ccc(NC(=O)[C@H](CCCNC(N)=O)NC(=O)[C@@H](NC(=O)[C@H](CCC(=O)O)NC(=O)[C@H](CS(=O)(=O)O)NC(=O)CCOCCC(=O)NCCNc2ncc(-c3cc(C)cc(F)c3)c(N3CCC(N)CC3)c2-c2nc3ccc(Cl)cc3[nH]2)C(C)C)cc1)C(C)C` [Compound 113] (X1-[Cya]EV[Cit][PABC][NMeV]V[Dil][Dolaproine]-X2) are 200 nM, 0.33 nM and 30 nM.
`CC[C@H](C)[C@@H]([C@@H](CC(=O)N1CCC[C@H]1[C@H](OC)[C@@H](C)C(=O)N[C@H](C)[C@@H](O)c1ccccc1)OC)N(C)C(=O)[C@@H](NC(=O)[C@H](C(C)C)N(C)C(=O)OCc1ccc(NC(=O)[C@H](CCCNC(N)=O)NC(=O)[C@@H](NC(=O)CCCCC(=O)NCCNc2ncc(-c3cc(C)cc(F)c3)c(N3CCC(N)CC3)c2-c2nc3ccc(Cl)cc3[nH]2)C(C)C)c(O[C@@H]2O[C@H](C(=O)O)[C@@H](O)[C@H](O)[C@H]2O)c1)C(C)C` [Compound 133]: the EC50 in experiment [1] (2 h) stood at 34 nM; in experiment [2] (read-out: hSST2 cAMP Avg EC50), 0.11 nM; at SST2 (read-out: Internalization EC50), 6 nM.
